Measurements from patent US20230390315A1, “COMPOSITIONS AND METHODS FOR TREATING ISCHEMIC CONDITIONS” (The Regents of the University of California, priority 2020, published 2023).

Tested on: HUVEC
Test: HUVEC proliferation assay
Format: cell-based, human
Method: Proliferation assays with BCECs and BRECs were performed. Log-phase growing BCECs or BRECs (passage <10) were trypsinized, re-suspended and seeded in 96-well plates (no coating) in low-glucose DMEM supplemented with 10% bovine calf serum, 2 mM glutamine, and antibiotics (growth medium), at a density of 1200-1500 cells per well in 200 μl volume. All reagents were added at the indicated final concentrations. After 3-6 days, cells were incubated with AlamarBlue for 4 hrs. Fluorescence was measured at 530 nm excitation wavelength and 590 nm emission wavelength. The experiments were repeated at least three times. To create a hypoxic condition, cells were placed in a hypoxia incubator with a mixture of gas consisting of 1% 02, 5% CO2 and 94% Nz. On each 96-well plate, untreated and VEGF-treated (10/ng/ml) wells were included to monitor plate-to-plate variations. 20% methanol or 0.05% DMSO served as negative controls. 0.05% DMSO served as negative controls when Cas was tested in these cells. Human RMVECs and human adult DMVECs were split into Gelatin-coated 96 wells (2000 cells per well) in low glucose DMEM containing 10% FBS. 1200 cells/well was set up for proliferation assay in low glucose media containing FBS. Data was collected at day 4 or 5. HUVEC (p7-10) were grown on gelatin-coated plate until it reached 70-80% confluency.
On the day of the assay, cells were dissociated with 0.05% trypsin, which was neutralized with 0.5% FBS-containing EBM. Cells were briefly spun and then re-suspended in 0.5% FBS-media. Cells were counted and plated in 96-well, 1000 cells/well. Triplicate wells were used for each treatment. Data were collected at day 3, and then cells were fixed in 4% paraformaldehyde for 15 min before adding crystal violet. Cell-covered areas were quantified after taking pictures by Image J software.

In the case of `N[C@H](C=O)[C@@H](O)[C@H](O)[C@H](O)CO` [ManN, 2-Amino-2-deoxy-D-mannose], the “additivity with VEGF on proliferation” value (HUVEC) is reported as “dose-dependent additivity with VEGF”, the toxicity (HUVEC, at 5 mM) is reported as “minimal toxicity” and the HUVEC growth (ManN by itself) is reported as “stimulated”.
